Experimental data published in patent publication US4584377A, “Novel Fredericamycin A derivatives” (SS Pharmaceutical Co., Ltd., priority 1983, dated 1986).
In brackets after ≈: the same amount, converted by molar mass. Read-outs that look alike come from different tables or passages of the source.

Legend:
[1] = tested on: Saccharomyces ruxii 6507; experiment: MIC, yeasts and molds (agar culture); type: cell-based; settings: 28° C., 120 hours, glucose-peptone agar, read-out: Minimum inhibitory concentration MIC
[2] = tested on: Staphylococcus epidermidis ATCC 12228; experiment: MIC, antibacterial activity (agar culture); type: cell-based; settings: ATCC12228, 37° C., 18-20 hours, Mueller-Hinton agar, read-out: Minimum inhibitory concentration MIC
[3] = tested on: Piricularia oryzae IAM 5016; experiment: microbe, parasite or virus in culture; type: cell-based
[4] = tested on: Bacillus subtilis ATCC 6633; experiment: MIC, antibacterial activity (agar culture); type: cell-based; settings: ATCC6633, 37° C., 18-20 hours, Mueller-Hinton agar, read-out: Minimum inhibitory concentration MIC
[5] = tested on: Aspergillus niger ATCC 9642; experiment: MIC, yeasts and molds (agar culture); type: cell-based; settings: ATCC9642, 28° C., 120 hours, glucose-peptone agar, read-out: Minimum inhibitory concentration MIC
[6] = tested on: Trichophyton mentagrophytes QM 248; experiment: MIC, yeasts and molds (agar culture); type: cell-based; settings: QM248, 28° C., 120 hours, glucose-peptone agar, read-out: Minimum inhibitory concentration MIC
[7] = tested on: Ehrlich carcinoma; experiment: Antitumor effect, survival of tumor-inoculated mice; type: in vivo, ICR mice; settings: Mus musculus, ip, 240 h, intraperitoneally, once a day for 10 days, read-out: percentage of mean survival time of test and control animals
[8] = tested on: Debaryomyces Kloecheri IFO 0015; experiment: MIC, yeasts and molds (agar culture); type: cell-based; settings: IFO0015, 28° C., 120 hours, glucose-peptone agar, read-out: Minimum inhibitory concentration MIC
[9] = tested on: Sarcina lutea ATCC 9341; experiment: MIC, antibacterial activity (agar culture); type: cell-based; settings: Micrococcus luteus, ATCC9341, 37° C., 18-20 hours, Mueller-Hinton agar, read-out: Minimum inhibitory concentration MIC
[10] = tested on: Micrococcus lysodeikticus IFO 3333; experiment: MIC, antibacterial activity (agar culture); type: cell-based; settings: Micrococcus luteus, IFO3333, 37° C., 18-20 hours, Mueller-Hinton agar, read-out: Minimum inhibitory concentration MIC
[11] = tested on: Pseudomonas aeruginosa IFO 13736; experiment: MIC, antibacterial activity (agar culture); type: cell-based; settings: IFO13736, 37° C., 18-20 hours, Mueller-Hinton agar, read-out: Minimum inhibitory concentration MIC
[12] = tested on: Staphylococcus aureus Smith; experiment: MIC, antibacterial activity (agar culture); type: cell-based; settings: 37° C., 18-20 hours, Mueller-Hinton agar, read-out: Minimum inhibitory concentration MIC
[13] = tested on: Penicillium chrysogenum ATCC 6010; experiment: MIC, yeasts and molds (agar culture); type: cell-based; settings: ATCC6010, 28° C., 120 hours, glucose-peptone agar, read-out: Minimum inhibitory concentration MIC
[14] = tested on: Candida albicans NHL 4019; experiment: MIC, yeasts and molds (agar culture); type: cell-based; settings: NHL4019, 28° C., 120 hours, glucose-peptone agar, read-out: Minimum inhibitory concentration MIC
[15] = tested on: Streptococcus faecalis IFO 12964; experiment: MIC, antibacterial activity (agar culture); type: cell-based; settings: Enterococcus faecalis, IFO12964, 37° C., 18-20 hours, Mueller-Hinton agar, read-out: Minimum inhibitory concentration MIC
[16] = tested on: mouse leukemia P-388; experiment: Antitumor effect, survival of tumor-inoculated mice; type: in vivo, CDF1 mice; settings: intraperitoneally, once a day for 10 days
Method: (§1) Antitumor effects of some Fredericamycin A derivatives against Ehrlich carcinoma, Meth-A fibrosarcoma and mouse leukemia P-388 were tested in accordance with the following procedures. Antitumor effects against Ehrlich carcinoma and Meth-A fibrosarcoma are expressed by percentage of mean survival time of test and control animals. Antitumor effects against P-388 are expressed by percentage of median survival time of test and control animals.
(§2) (ii) Meth-A fibrosarcoma and mouse leukemia P-388:
(§3) 1×10^6 tumor cells were inoculated to CDF1 mice (.male., Charles River Japan Inc.) intraperitoneally. Each tested compound was given intraperitoneally once a day for 10 days from 1 day after tumor inoculation.

[17] = tested on: Escherichia coli 0-1; experiment: MIC, antibacterial activity (agar culture); type: cell-based; settings: 01, 37° C., 18-20 hours, Mueller-Hinton agar, read-out: Minimum inhibitory concentration MIC
[18] = tested on: Staphylococcus aureus TERAGIMA; experiment: MIC, antibacterial activity (agar culture); type: cell-based; settings: 37° C., 18-20 hours, Mueller-Hinton agar, read-out: Minimum inhibitory concentration MIC
[19] = tested on: Seratia marcescens NHL; experiment: MIC, antibacterial activity (agar culture); type: cell-based; settings: 37° C., 18-20 hours, Mueller-Hinton agar, read-out: Minimum inhibitory concentration MIC
[20] = tested on: Cladosporium fulvum IAM 5006; experiment: MIC, yeasts and molds (agar culture); type: cell-based; settings: Fulvia fulva, IAM5006, 28° C., 120 hours, glucose-peptone agar, read-out: Minimum inhibitory concentration MIC
[21] = tested on: Gibberella fujikuroi IAM 8046; experiment: MIC, yeasts and molds (agar culture); type: cell-based; settings: Fusarium fujikuroi, IAM8046, 28° C., 120 hours, glucose-peptone agar, read-out: Minimum inhibitory concentration MIC
[22] = tested on: Salmonella typhi TD; experiment: MIC, antibacterial activity (agar culture); type: cell-based; settings: Salmonella enterica, read-out: Minimum inhibitory concentration MIC
[23] = tested on: Microsporum gypseum IFO 8231; experiment: MIC, yeasts and molds (agar culture); type: cell-based; settings: Nannizzia gypsea, IFO8231, 28° C., 120 hours, glucose-peptone agar, read-out: Minimum inhibitory concentration MIC
[24] = tested on: Helmintsporium sesamum IAM 5012; experiment: MIC, yeasts and molds (agar culture); type: cell-based; settings: 28° C., 120 hours, glucose-peptone agar, read-out: Minimum inhibitory concentration MIC
[25] = tested on: Fusarium moniliforme IAM 5062; experiment: MIC, yeasts and molds (agar culture); type: cell-based; settings: Fusarium verticillioides, IAM5062, 28° C., 120 hours, glucose-peptone agar, read-out: Minimum inhibitory concentration MIC
[26] = tested on: Shigella flexneri 2b; experiment: MIC, antibacterial activity (agar culture); type: cell-based; settings: 37° C., 18-20 hours, Mueller-Hinton agar, read-out: Minimum inhibitory concentration MIC
[27] = tested on: Proteus vulgaris OXK; experiment: MIC, antibacterial activity (agar culture); type: cell-based; settings: 37° C., 18-20 hours, Mueller-Hinton agar, read-out: Minimum inhibitory concentration MIC
[28] = tested on: Aspergillus oryzae IFM 4014; experiment: MIC, yeasts and molds (agar culture); type: cell-based; settings: IFM4014, 28° C., 120 hours, glucose-peptone agar, read-out: Minimum inhibitory concentration MIC
[29] = tested on: Klebsiella pneumoniae ATCC 10031; experiment: MIC, antibacterial activity (agar culture); type: cell-based; settings: ATCC10031, 37° C., 18-20 hours, Mueller-Hinton agar, read-out: Minimum inhibitory concentration MIC
[30] = tested on: Staphylococcus aureus FDA 209P; experiment: MIC, antibacterial activity (agar culture); type: cell-based; settings: FDA209P, 37° C., 18-20 hours, Mueller-Hinton agar, read-out: Minimum inhibitory concentration MIC
[31] = tested on: Meth-A fibrosarcoma; experiment: Antitumor effect, survival of tumor-inoculated mice; type: in vivo, CDF1 mice; settings: intraperitoneally, once a day for 10 days
Method: as §1, §2, §3

[32] = tested on: various microorganisms; settings: prior art statement; cited from earlier work
[33] = physchem; type: physicochemical; settings: 10 μg/ml in dimethylsulfoxide/physiological saline
Method: The stability of some Fredericamycin A derivatives and Fredericamycin A in their aqueous solutions were tested in accordance with the following procedures.
The test compounds were individually dissolved in dimethylsulfoxide, followed by dilution of the resulting solutions with physiological saline to adjust the final concentrations of the test compounds and Fredericamycin to 10 μg/ml respectively. The thus-prepared test solutions were then subjected to high performance liquid chromatography after predetermined time intervals to measure the percentage remainders of the test compounds.

[34] = tested on: various microorganisms; experiment: Antibacterial activities against the tested microorganisms (general statement); type: cell-based; settings: for each of the tested microorganism (Table 1)
Method: It should be noted that the MIC of Fredericamycin A was 100 μg/ml or more for each of the tested microorganism.
Culture conditions for the test microorganisms:
Inoculum size: 1×10^6 cells/ml. In the case of bacteria, each bacterium was cultured at 37° C. for 18-20 hours on a Mueller-Hinton agar (product of Difco Corp.). In the case of yeasts and molds, each microorganism was cultured at 28° C. for 120 hours on a glucose-peptone agar.

[35] = prior art statement; cited from earlier work

CCCCCc1cc2cc3c(c(O)c2c(=O)[nH]1)C1(CC3)C(=O)c2c(OC(C)=O)c3c(c(OC(C)=O)c2C1=O)C(=O)C(OC)=CC3=O (stereo not shown) [Compound 18, diacetyltetrahydrofredericamycin A]
MIC [1]: > 100 mg/L | MIC [2]: 0.78 mg/L (≈ 1.24 µM) | MIC ([3]; 120 h, read-out: Minimum inhibitory concentration MIC): 0.78 mg/L (≈ 1.24 µM) | MIC [4]: 50 mg/L (≈ 79.7 µM) | MIC [5]: > 100 mg/L | MIC [6]: > 100 mg/L | response vs control in vivo at 2 mg/kg/day ([7]; 2.0 mg/kg/day): 125% | response vs control in vivo at 4 mg/kg/day ([7]; 4.0 mg/kg/day): > 188% | response vs control in vivo at 8 mg/kg/day ([7]; 8.0 mg/kg/day): > 212% | MIC [8]: > 100 mg/L | MIC [9]: 25 mg/L (≈ 39.8 µM) | MIC [10]: 25 mg/L (≈ 39.8 µM) | MIC [11]: > 100 mg/L | MIC [12]: 25 mg/L (≈ 39.8 µM) | MIC [13]: > 100 mg/L | MIC [14]: > 100 mg/L | MIC [15]: 25 mg/L (≈ 39.8 µM) | percentage of median survival time of test and control animals ([16]; 2.0 mg/kg/day): 138% | percentage of median survival time of test and control animals ([16]; 4.0 mg/kg/day): 142% | percentage of median survival time of test and control animals ([16]; 8.0 mg/kg/day): 147% | MIC [17]: > 100 mg/L

C/C=C/C=C/c1cc2cc3c(c(O)c2c(=O)[nH]1)C1(CC3)C(=O)c2c(OC(C)=O)c3c(c(OC(C)=O)c2C1=O)C(=O)C(OC)=CC3=O (stereo not shown) [Compound 1, Fredericamycin A diacetate]
MIC [1]: 0.39 mg/L | MIC [2]: 0.1 mg/L | MIC [18]: 12.5 mg/L | MIC ([3]; 120 h; read-out: Minimum inhibitory concentration MIC): 0.05 mg/L | MIC [4]: 0.39 mg/L | MIC [5]: 3.12 mg/L | MIC [6]: 0.39 mg/L | response vs control in vivo at 0.125 mg/kg/day ([7]; 0.125 mg/kg/day): 147% | response vs control in vivo at 0.25 mg/kg/day ([7]; 0.25 mg/kg/day): 267% | response vs control in vivo at 0.5 mg/kg/day ([7]; 0.5 mg/kg/day): 295% | MIC [19]: > 100 mg/L | MIC [20]: 1.56 mg/L | MIC [8]: 100 mg/L | MIC [21]: > 100 mg/L | MIC [9]: 0.39 mg/L | MIC [10]: 0.78 mg/L | MIC [22]: > 100 mg/L | MIC [23]: 0.39 mg/L | MIC [24]: 0.78 mg/L | MIC [11]: > 100 mg/L | MIC [12]: 6.25 mg/L | MIC [25]: 50 mg/L | MIC [13]: 0.78 mg/L | MIC [26]: > 100 mg/L | MIC [27]: > 100 mg/L | MIC [28]: 1.56 mg/L | MIC [29]: > 100 mg/L | MIC [14]: > 100 mg/L | MIC [15]: 1.56 mg/L | MIC [30]: 50 mg/L | percentage of mean survival time of test and control animals ([31]; 0.25 mg/kg/day): 127% | percentage of mean survival time of test and control animals ([31]; 0.5 mg/kg/day): 191% | percentage of mean survival time of test and control animals ([31]; 1.0 mg/kg/day): 242% | MIC [17]: > 100 mg/L

C/C=C/C=C/c1cc2cc3c(c(O)c2c(=O)[nH]1)C1(CC3)C(=O)c2c(O)c3c(c(O)c2C1=O)C(=O)C(OC)=CC3=O (stereo not shown) [Fredericamycin A]
antibacterial activities [32]: weak | Percentage remainder ([33]; 0 hr.): 100% | remaining at 3 h ([33]; 3 hrs., read-out: Percentage remainder): 78.9% | remaining at 6 h ([33]; 6 hrs., read-out: Percentage remainder): 64% | remaining at 24 h ([33]; 24 hrs., read-out: Percentage remainder): 38.1% | remaining at 48 h ([33]; 48 hrs., read-out: Percentage remainder): 27.3% | remaining at 72 h ([33]; 72 hrs., read-out: Percentage remainder): 18.4% | MIC [34]: ≥ 100 mg/L | stability [35]: low
